Each block holds one compound with its values, some of them ahead of it.
What was measured:
[1] = molecular target: T1, PLA2G15 (Cricetulus griseus, UniProt G3HKV9); assay: PLA2G15 inhibition study: fosinopril spiked in DP2 material, PS20 HPLC-CAD subspecies method; type: biochemical; conditions: room temperature in dark for two weeks
T1 construct: PLA2 in the liquid compositions described herein is derived from a CHO cell line; endogenous in cells; host or cells: CHO cells expressing risankizumab (host-cell protein carried into drug substance/drug product)
T1 sequence (G3HKV9 34-412): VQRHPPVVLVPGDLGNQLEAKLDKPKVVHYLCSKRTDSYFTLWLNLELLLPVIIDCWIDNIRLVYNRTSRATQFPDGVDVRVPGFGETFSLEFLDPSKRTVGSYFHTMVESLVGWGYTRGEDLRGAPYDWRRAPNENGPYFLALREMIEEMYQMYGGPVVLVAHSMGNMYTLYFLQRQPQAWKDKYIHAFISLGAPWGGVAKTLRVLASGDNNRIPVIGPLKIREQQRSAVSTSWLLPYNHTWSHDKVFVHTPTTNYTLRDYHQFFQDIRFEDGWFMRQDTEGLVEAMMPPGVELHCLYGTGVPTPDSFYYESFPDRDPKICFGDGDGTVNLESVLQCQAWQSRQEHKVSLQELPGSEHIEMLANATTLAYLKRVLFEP
Procedure: Fosinopril is an angiotensin converting enzyme (ACE) inhibitor, which is been used to treat hypertension and some types of chronic heart failure (Murdoch et al. (1992) Drugs 43:123-140). […] All samples (including non-spiked samples) were incubated at room temperature in the dark for two weeks. PS20 degradation levels in those samples were tested with a PS20 subspecies method. PS20 degradation levels in those samples were compared with negative controls (non-spiked samples kept at room temperature in dark for two weeks) and positive controls (non-spiked samples kept at −80° C. before testing). […] The chemical structure of fosinopril is shown below.
Fosinopril sodium was dissolved in Mill-Q water at a concentration of 0.5 mg/mL. The solution was aseptically filtered with a 0.22 syringe filter before use. During the filtration, the syringe filter was flushed with Mill-Q water and then with the 0.5 mg/mL fosinopril water solution. Lower concentrations of fosinopril water solutions were aseptically diluted with Mill-Q water. More detailed sample preparation can be found in Table 22. All vials were glass vials, and solutions were well mixed before incubation. Samples were incubated at room temperature in dark for two weeks before testing.
A PS20 HPLC-CAD subspecies method was used to test the PS20 levels qualitatively as well as profiles in all samples. Solutions were transferred to HPLC vials and diluted with Milli-Q water (1:1 dilution). All HPLC vials were mixed well before placed in an HPLC autosampler for testing. Sample descriptions and labels can be found in Table 23.

[2] = molecular target: T2, PLA2G15 (Phospholipase A2 Group XV) (Homo sapiens, UniProt Q8NCC3); conditions: Hinkovska-Galcheva et al. (2021); read-out: IC50, inhibition of PLA2G15 activity; cited from earlier work
T2 sequence (Q8NCC3 34-412): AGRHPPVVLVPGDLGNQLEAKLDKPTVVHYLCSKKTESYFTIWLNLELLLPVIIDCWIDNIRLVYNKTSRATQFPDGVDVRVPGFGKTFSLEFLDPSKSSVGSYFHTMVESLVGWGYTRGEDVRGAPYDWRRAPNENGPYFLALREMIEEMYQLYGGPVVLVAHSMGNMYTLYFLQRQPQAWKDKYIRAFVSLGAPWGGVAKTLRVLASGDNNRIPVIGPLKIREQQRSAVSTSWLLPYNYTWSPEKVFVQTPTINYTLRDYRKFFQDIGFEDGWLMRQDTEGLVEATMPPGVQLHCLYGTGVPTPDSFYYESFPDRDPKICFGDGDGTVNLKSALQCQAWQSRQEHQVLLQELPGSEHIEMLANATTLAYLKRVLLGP

[3] = Size exclusion chromatography (UP-SEC/SEC): monomer and HMW; type: physicochemical; conditions: compared to Process 1 reference standard DS1-RS2
Source text: (§1) The PLBL2 KO, PLA2G15 KO, LPL KO and wild-type process control materials were thawed and purified using Process 1 (see Example 1), while ultrafiltration/diafiltration (UF/DF) followed Process 4 (see Example 3). […] High molecular weight (HMW) by size exclusion chromatography (SEC), charge variants by weak cation exchange chromatography (WCX), low molecular weight (LMW) by non-reduced capillary electrophoresis sodium dodecyl sulfate (CE-SDS), free fatty acids (FFA) and PS20 levels were monitored during the stability study at various time points.
(§2) Antibody preparations derived from the knock-out samples and controls were tested for the presence of the three lipases by specific ELISA methods: PLBL2 and PLA2G15 were measured using CHO-specific in-house methods and LPL was measured using a commercial anti-mouse ELISA kit. PS20 stability was measured in samples that were incubated for different lengths of time (several time points over a 12-month period) and different temperatures (5° C., 25° C., 40° C.) using two different methods. One method measured the total amount of PS20 present in the sample; PS20 was quantified directly by using a RP-HPLC-CAD method. The other method assessed the breakdown of PS20 by measuring the amount of free fatty acid, mainly lauric acid that was released by hydrolysis. […] The generated signal is directly proportional to the quantity of FFAs released. […]

[4] = Non-reduced capillary gel electrophoresis (CGE-NR / CE-SDS): main peak and LMW; type: physicochemical; conditions: compared to Process 1 reference standard DS1-RS2
Source text: as §1, §2

[5] = molecular target: T3, IL-23 (Homo sapiens, UniProt Q9NPF7); assay: Inhibition of IL-23 stimulated IL-17 production; type: cell-based; conditions: read-out: inhibition of IL-23 stimulated IL-17 production, inhibitory concentration (IC) 50
T3 sequence (Q9NPF7 20-189): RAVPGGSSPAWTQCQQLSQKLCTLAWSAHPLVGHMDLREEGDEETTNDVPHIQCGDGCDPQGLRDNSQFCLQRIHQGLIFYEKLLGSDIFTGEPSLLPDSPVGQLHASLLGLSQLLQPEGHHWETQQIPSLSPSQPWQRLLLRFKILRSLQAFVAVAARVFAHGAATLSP
T3 sequence (P29460 23-328 partner): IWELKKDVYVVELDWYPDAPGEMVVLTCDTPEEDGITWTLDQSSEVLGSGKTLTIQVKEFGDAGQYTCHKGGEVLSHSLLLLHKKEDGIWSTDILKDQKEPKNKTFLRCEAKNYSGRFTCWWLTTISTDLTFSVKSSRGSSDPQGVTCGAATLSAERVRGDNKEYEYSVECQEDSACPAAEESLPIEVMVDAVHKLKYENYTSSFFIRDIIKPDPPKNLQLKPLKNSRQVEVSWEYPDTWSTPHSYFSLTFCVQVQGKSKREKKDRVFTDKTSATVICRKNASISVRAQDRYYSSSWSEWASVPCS

[6] = molecular target: T4, IL-12 (Homo sapiens, UniProt P29459+P29460); assay: IL-12 effect / IL-12 stimulated IFN-γ production; type: cell-based
T4 sequence (P29459 23-219): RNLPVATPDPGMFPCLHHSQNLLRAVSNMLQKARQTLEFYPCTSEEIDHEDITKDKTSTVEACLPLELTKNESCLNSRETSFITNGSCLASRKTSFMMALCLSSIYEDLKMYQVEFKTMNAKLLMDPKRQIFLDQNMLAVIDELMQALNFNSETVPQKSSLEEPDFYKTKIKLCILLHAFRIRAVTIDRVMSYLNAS
T4 sequence (P29460 23-328): T3 sequence (P29460 23-328 partner)

[7] = molecular target: T3, IL-23; assay: Binding to human IL-23
[8] = tested on: healthy adult subjects; assay: Anti-drug antibody (ADA) incidence after single 150 mg SC dose, bridging electrochemiluminescence immunoassay; type: in vivo, human; conditions: 113 days
Procedure: A single-dose, randomized, two-parallel-arm, open-label, multi-center study in healthy adult subjects was carried out. Subjects received a risankizumab 150 mg dose by subcutaneous (SC) injection in the abdomen using a 150 mg/ml formulation in a prefilled syringe (PFS). Arm 1: Risankizumab 150 mg/mL formulation in PFS produced by Process 4 (150 mg×1 SC injection) (test, N=132); Arm 2: Risankizumab 150 mg/mL formulation in PFS produced by Process 2 (150 mg×1 SC injection) (reference, N=130). Serial blood samples for anti-drug antibody (ADA) were collected over a period of 113 days. […]
The presence of ADA was determined using a validated titer based bridging electrochemiluminescence immunoassay as described below.
This is a qualitative assay designed to detect anti-risankizumab antibodies in human serum. Anti-drug antibodies (ADA) against risankizumab in human serum were detected using an electrochemiluminescent (ECL) immunoassay. […] This complex was bound to a blocked MSD-streptavidin (MSD-SA) plate and detected by a chemiluminescent signal that was generated when voltage was applied. […]
Samples were analyzed in a tiered approach. […]
The confirmatory assay measured the percent inhibition of ECL immunoassay signals of screened positive samples when spiked with excess risankizumab. […]

[9] = ADCC activity
Source text: (§3) Risankizumab has been designed with Leu234Aa and Leu235Aa mutations in Fc to diminish its Fc effector binding activity.

[10] = CDC activity
Source text: as §3

protection (inhibition) of PS20 degradation in the DP2 material ([1]; 0.9 μg/mL spiking level, vs non-spiked control, listed as Fosinopril): showed protection (inhibition)
protection (inhibition) of PS20 degradation in the DP2 material ([1]; 0.9-83.3 ug/mL spiked, listed as Fosinopril): dose dependent protection (inhibition)
Compound: CCC(=O)O[C@@H](O[P@](=O)(CCCCc1ccccc1)CC(=O)N1C[C@H](C2CCCCC2)C[C@H]1C(=O)O)C(C)C [fosinopril]
protection (inhibition) of PS20 degradation in the DP2 material ([1]; 0.9 μg/mL spiking level, vs non-spiked control): reduction of PS20 degradation has been observed
protection (inhibition) of PS20 degradation in the DP2 material ([1]; 0.9-83.3 ug/mL spiked): Dose (concentration) dependent protection (inhibition)
IC50 [2]: ~180 nM

Compound: DS4-005: risankizumab Process 4 drug substance batch
HMW peak by UP-SEC [3]: smaller
LMW peak by CGE-NR [4]: smaller

IC50 [5]: < 0.01 nM
inhibition of IL-12 stimulated IFN-γ production [6]: does not inhibit
effect on IL-12 ([6]; maximum tested concentration (33 nM)): does not affect
binding to human IL-23 [7]: high affinity
Compound: Immunoglobulin G1, anti-(human interleukin 23 subunit p19) (human-Mus musculus heavy chain), disulfide with human-Mus musculus κ-chain, dimer [risankizumab]
treatment-emergent ADA incidence [8]: low
ADCC activity [9]: does not possess
COC activity [10]: does not possess

From patent US20250313619A1, “RISANKIZUMAB COMPOSITIONS” (ABBVIE INC., priority 0001, published 2025)
